# Measurements as given in PMC5515969, “Effects of 31 FDA approved small-molecule kinase inhibitors on isolated rat liver mitochondria” (Archives of Toxicology, 2016).
# Like-named read-outs stand apart in the source and are kept apart here. Marks after values point to notes of the source that are not given here.
# What was measured:
# RCC I = RCC I activity in submitochondrial particles; format: biochemical, rat; design: key to RCC I at 10XCmax / RCC I at 100XCmax / RCC I at 50XCmax / RCC I at 30XCmax / RCC I at 20XCmax: activity relative to DMSO-treated controls (control set as 1 = 100%)
# Procedure, shortened: (§1)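 Inhibitors preincubated 15 min with submitochondrial particles (1 mg/ml) before activity readout. RCC I (rotenone-sensitive fraction) and I/V: A340, and RCC II: A600, each every 1 min for 6 min; RCC III/IV: A550 every 10 s for 2 min. Activities relative to DMSO control set as 1.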
# [1] = cited from earlier work
# [2] = test system: isolated rat liver mitochondria; test: Mitochondrial swelling (absorbance at 535 nm); format: biochemical
# [3] = test system: isolated rat liver mitochondria; test: Mitochondrial inner membrane potential (MMP), Rhodamine 123; format: biochemical
# Text: Fig. 3 KI effects on mitochondrial inner membrane potential (MMP). […] In a, c, data are means and standard derivations from three separate experiments. *p < 0.05 as compared to DMSO-treated samples at the end of experiments. In b, data are means of two independent experiments
# [4] = cited from earlier work; remark: listed apart in the source
# RCC IV = RCC IV activity in submitochondrial particles; format: biochemical, rat; details: 10-fold Cmax; 15 min; DMSO-treated = 100
# Procedure, shortened: as §1
# RCC II = molecular target: T1, RCC II (Rattus norvegicus, UniProt P21913+Q641Z9+Q6PCT8+Q920L2); test: RCC II activity in submitochondrial particles; format: biochemical; design: key: activity relative to DMSO-treated controls (control set as 1 = 100%); details: relative to DMSO treated samples
# T1 construct: Submitochondrial particles were prepared by subjecting the intact mitochondria to three successive freeze–thaw cycles; from tissue; host or cells: rat liver mitochondria, used as submitochondrial particles
# T1 sequence (Q920L2 35-656): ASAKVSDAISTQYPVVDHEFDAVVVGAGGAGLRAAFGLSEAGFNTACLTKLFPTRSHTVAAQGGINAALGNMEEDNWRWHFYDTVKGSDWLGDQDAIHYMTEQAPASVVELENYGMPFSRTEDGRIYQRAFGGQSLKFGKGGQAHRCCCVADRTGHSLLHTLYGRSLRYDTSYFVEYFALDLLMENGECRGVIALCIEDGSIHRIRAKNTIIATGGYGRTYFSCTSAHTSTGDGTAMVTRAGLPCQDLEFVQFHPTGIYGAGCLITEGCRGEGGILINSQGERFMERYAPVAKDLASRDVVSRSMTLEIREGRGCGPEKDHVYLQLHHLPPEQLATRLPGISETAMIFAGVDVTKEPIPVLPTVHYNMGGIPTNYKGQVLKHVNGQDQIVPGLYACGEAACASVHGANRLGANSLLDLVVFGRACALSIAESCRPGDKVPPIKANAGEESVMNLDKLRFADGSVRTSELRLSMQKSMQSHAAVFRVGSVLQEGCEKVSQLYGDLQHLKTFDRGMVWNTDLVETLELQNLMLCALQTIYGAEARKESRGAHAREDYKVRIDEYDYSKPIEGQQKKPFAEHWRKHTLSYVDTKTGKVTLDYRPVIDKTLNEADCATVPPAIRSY
# T1 sequence (P21913 31-282): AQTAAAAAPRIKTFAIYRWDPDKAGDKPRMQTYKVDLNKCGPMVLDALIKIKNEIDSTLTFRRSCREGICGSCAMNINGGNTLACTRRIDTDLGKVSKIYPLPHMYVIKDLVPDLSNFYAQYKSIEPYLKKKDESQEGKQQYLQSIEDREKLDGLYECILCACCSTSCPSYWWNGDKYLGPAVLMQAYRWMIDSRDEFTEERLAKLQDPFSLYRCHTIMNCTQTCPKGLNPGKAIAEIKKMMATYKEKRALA
# T1 sequence (Q641Z9 1-169): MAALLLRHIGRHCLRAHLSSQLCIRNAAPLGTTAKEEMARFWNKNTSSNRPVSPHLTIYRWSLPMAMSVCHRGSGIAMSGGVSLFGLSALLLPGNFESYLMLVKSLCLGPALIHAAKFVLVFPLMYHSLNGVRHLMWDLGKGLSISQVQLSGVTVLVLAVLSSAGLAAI
# T1 sequence (Q6PCT8 57-159): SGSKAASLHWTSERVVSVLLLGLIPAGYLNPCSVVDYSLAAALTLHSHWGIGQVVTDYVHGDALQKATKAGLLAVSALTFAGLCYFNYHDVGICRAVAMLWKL
# Procedure, shortened: as §1
# [5] = test system: isolated rat liver mitochondria; test: Mitochondrial oxygen consumption (glutamate/malate or succinate driven, state 4 and state 3); format: biochemical; details: for Glutamate/malate driven respiration State 3 / Glutamate/malate driven respiration State 4 / Succinate-driven respiration State 3 / Succinate-driven respiration State 4: oxygen consumption, DMSO-treated = 1; for State 3 respiration driven by succinate at 10XCmax: key: 0 indicates that the drug had no effects (negative); for State 3 respiration driven by succinate at 1XCmax: key: 0 indicates that the drug had no effects (negative)
# Procedure, shortened: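 Rat liver mitochondria (1 mg/ml protein) exposed 5 min to kinase inhibitors in 0.1% DMSO, then O2 consumption measured by Clark-type electrode with glutamate/malate or succinate (state 4), ADP added after 3 min (state 3). Rates normalized to 0.1% DMSO controls set to 1.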
# [6] = test system: isolated rat liver mitochondria; details: positive control alamethicin treated samples
# RCC V = RCC V activity in submitochondrial particles; format: biochemical, rat; for RCC V at 5XCmax: key: 0 indicates that the drug had no effects (negative)
# Procedure, shortened: as §1
# [7] = 10-fold Cmax, 15 min, DMSO-treated = 100
# [8] = 1XCmax, difference in signal between KI and DMSO treated samples at the end of experiments
# [9] = 1XCmax, DMSO treated samples set as 1
# [10] = 2.5XCmax, DMSO treated samples set as 1
# [11] = 5XCmax, DMSO treated samples set as 1
# [12] = 10XCmax, DMSO treated samples set as 1
smiles,measurement,setting,value
CNC(=O)c1cc(Oc2ccc(NC(=O)Nc3ccc(Cl)c(C(F)(F)F)c3)c(F)c2)ccn1 [Regorafenib],RCC activity I,RCC I; [7],99.37 ± 3.35 % of control
same,RCC I at 10XCmax,"RCC I; 10XCmax, relative to DMSO treated samples",0
same,Cmax,"[1]; human therapeutic Cmax at FDA recommended dosages, ref product labeling and drug approval packages at the official FDA website",8.08 µM
same,Cmax,"[1]; therapeutic maximal blood concentration, ref product labeling",3900 ng/mL
same,lowest concentration causing mitochondrial swelling,[2],onefold
same,Swelling 1XCmax,[2]; [8],0.46±0.03
same,mitochondrial swelling,[2]; onefold Cmax,almost maximal swelling
same,effect on mitochondrial swelling,"[2]; up to 100-fold Cmax or highest testable concentration, 25 µM calcium chloride",significant mitochondrial swelling
same,lowest concentration decreasing MMP,[3],onefold
same,MMP measured by Rhodamine 123 at 1XCmax,[3]; [8],4244±687*
same,MMP measured by Rhodamine 123 at 2.5XCmax,"[3]; 2.5XCmax, difference in signal between KI and DMSO treated samples at the end of experiments",4112±722*
same,MMP measured by Rhodamine 123 at 5XCmax,"[3]; 5XCmax, difference in signal between KI and DMSO treated samples at the end of experiments",3961±724*
same,MMP measured by Rhodamine 123 at 10XCmax,"[3]; 10XCmax, difference in signal between KI and DMSO treated samples at the end of experiments",3711±588*
same,effect on MMP,[3]; up to 100-fold Cmax or highest testable concentration,decrease in MMP
same,DILI potential (based on labeling),"[4]; 1 = DILI positive, 0 = negative, ref product labeling",1
same,Labeling for DILI,"[4]; BBW: black box warning, W&P: Warnings and Precautions, ref product labeling",BBW: fatal DILI
same,labeling for DILI,"[4]; W&P warnings and precautions, BBW black box warnings, ref FDA product labeling",BBW: fatal DILI
same,DILI potential (based on labeling),[4]; ref FDA product labeling,1
same,RCC activity IV,RCC IV,95.37 ± 6.45 % of control
same,RCC II at 1.0XCmax,RCC II; 1.0XCmax,0
same,RCC II at 2.5XCmax,RCC II; 2.5XCmax,0
same,RCC II at 5XCmax,RCC II; 5XCmax,0
same,RCC II at 10XCmax,RCC II; 10XCmax,83.50±2.91
same,Glutamate/malate driven respiration State 3,[5]; 1-fold Cmax,2.33 ± 0.06
same,Glutamate/malate driven respiration State 4,[5]; 1-fold Cmax,7.45 ± 0.17
same,Succinate-driven respiration State 3,[5]; 1-fold Cmax,1.05 ± 0.07
same,Succinate-driven respiration State 4,[5]; 1-fold Cmax,2.95 ± 0.08
same,State 3 respiration driven by glutamate/malate at 1XCmax,[5]; [9],2.33±0.06
same,State 3 respiration driven by succinate at 1XCmax,[5]; [9],0
same,State 4 respiration driven by glutamate/malate at 1XCmax,[5]; [9],7.45±0.17
same,State 4 respiration driven by succinate at 1XCmax,[5]; [9],2.95±0.08
same,Glutamate/malate driven respiration State 3,[5]; 2.5-fold Cmax,2.51 ± 0.04
same,Glutamate/malate driven respiration State 4,[5]; 2.5-fold Cmax,5.51 ± 0.35
same,Succinate-driven respiration State 3,[5]; 2.5-fold Cmax,0.84 ± 0.04
same,Succinate-driven respiration State 4,[5]; 2.5-fold Cmax,3.59 ± 0.14
same,State 3 respiration driven by glutamate/malate at 2.5XCmax,[5]; [10],2.51±0.04
same,State 3 respiration driven by succinate at 2.5XCmax,[5]; [10],0
same,State 4 respiration driven by glutamate/malate at 2.5XCmax,[5]; [10],5.51±0.35
same,State 4 respiration driven by succinate at 2.5XCmax,[5]; [10],3.59±0.14
same,Glutamate/malate driven respiration State 3,[5]; 5-fold Cmax,1.33 ± 0.04
same,Glutamate/malate driven respiration State 4,[5]; 5-fold Cmax,3.82 ± 0.72
same,Succinate-driven respiration State 3,[5]; 5-fold Cmax,0.83 ± 0.03
same,Succinate-driven respiration State 4,[5]; 5-fold Cmax,1.69 ± 0.09
same,State 3 respiration driven by glutamate/malate at 5XCmax,[5]; [11],1.33±0.04
same,State 3 respiration driven by succinate at 5XCmax,[5]; [11],0
same,State 4 respiration driven by glutamate/malate at 5XCmax,[5]; [11],3.82±0.72
same,State 4 respiration driven by succinate at 5XCmax,[5]; [11],1.69±0.09
same,Glutamate/malate driven respiration State 3,[5]; 10-fold Cmax,1.36 ± 0.03
same,Glutamate/malate driven respiration State 4,[5]; 10-fold Cmax,3.84 ± 0.34
same,Succinate-driven respiration State 3,[5]; 10-fold Cmax,0.82 ± 0.19
same,Succinate-driven respiration State 4,[5]; 10-fold Cmax,1.78 ± 0.19
same,State 3 respiration driven by glutamate/malate at 10XCmax,[5]; [12],1.36±0.03
same,State 3 respiration driven by succinate at 10XCmax,[5]; [12],0
same,State 4 respiration driven by glutamate/malate at 10XCmax,[5]; [12],3.84±0.34
same,State 4 respiration driven by succinate at 10XCmax,[5]; [12],1.78±0.19
same,effect on state 4 respiration,[5]; highest tested concentrations,significant increases
same,lowest concentration significantly affecting mitochondrial oxygen consumption,[5]; tested at 1 to 100-fold Cmax,equal to Cmax
same,Cytochrome c release 1XCmax,[6]; 1XCmax,10.72±1.87 percentage of the positive control group
same,Cytochrome c release 2.5XCmax,[6]; 2.5XCmax,22.56±1.84 percentage of the positive control group
same,Cytochrome c release 5XCmax,[6]; 5XCmax,10.26±0.36 percentage of the positive control group
same,Cytochrome c release 10XCmax,[6]; 10XCmax,7.42±0.36 percentage of the positive control group
same,RCC V at 5XCmax,"RCC V; 5XCmax, relative to DMSO treated samples",0
same,RCC activity V,RCC V; [7],90.36 ± 13.39 % of control
